From patent publication US9458507B1, “Antipsychotic treatment based on SNP genotype” (Vanda Pharmaceuticals, Inc., priority 2007, dated 2016)

Columns and labels:
[1] = test system: patients with diagnoses of schizophrenia; test: randomized, double-blind, placebo- and ziprasidone-controlled, 28-day study of iloperidone with whole genome association study; change in PANSS-T by SNP genotype; format: in vivo, human; settings: for mean of change in PANSS-T: iloperidone group, MMRM analysis; for Odds Ratio of Improvement ≧ 20% in PANSS-T: iloperidone-treated patients, LOCF data
Experimental: The clinical trial evaluated the efficacy of iloperidone in treating patients with diagnosed schizophrenia.
Patients 18 to 65 years of age with diagnoses of schizophrenia according to the Diagnostic and Statistical Manual of Mental Disorders, 4th Edition were eligible to participate in a randomized, double-blind, placebo- and ziprasidone-controlled, 28-day study of the efficacy and safety of iloperidone. Patients were randomly assigned to iloperidone 12 mg twice a day, ziprasidone 80 mg twice a day (active control), or placebo. The primary efficacy variable was change from baseline to the last scheduled observation in Positive and Negative Syndrome Scale total score (PANSS-T) using the data from the short-term, double-blind phase. A secondary objective was to identify genetic markers predictive of response to iloperidone.
Blood samples were collected, and DNA was extracted from 432 of 457 patients who consented to the optional WGAS, including 218 patients administered iloperidone and 102 administered placebo.
To independently discover and confirm biomarkers of iloperidone efficacy, patients administered iloperidone were randomly separated and genotyped for the WGAS into two groups (Group 1 (discovery phase) and Group 2 (confirmatory phase)) of equal size. PROC SURVEYSELECT (SAS Institute, Cary, N.C.) was used to stratify the groups to have approximately equal numbers of patients of each race and each sex.
In Group 1, each SNP was tested for potential association between genotype and change in PANSS-T for patients in the low 30% and the high 30% extremes of the distribution of Day 28 last-observation-carried-forward (LOCF) data. Analysis was performed using a truncated nonparametric measure analysis of variance (ANOVA), based on the Kruskal-Wallis test, with genotypes as the grouping variables. Based on a significant omnibus test and ad hoc contrasts, the results that produced the most parsimonious genetic model (e.g., homozygous for one allele vs. all other genotypes (e.g., AA vs. AB and BB), heterozygous vs. homozygous genotypes (AB vs. AA and BB)) dictated the genetic model that was tested in the confirmatory phase. For ease of global description, given that each SNP might have a different parsimonious model, the genotypes of all SNPs associated with positive iloperidone response were referred to as genotype class C1, and the remaining genotypes for that SNP were referred to as genotype class C2. If no parsimonious genetic model was obtained for a SNP, it was not tested further. Only the subset of 100 SNPs with the lowest P values for the contrasts that defined C1 and C2 was tested in the confirmatory phase.
Two separate methods were applied. LOCF data for PANSS-T at Day 28 were used in a one-way ANOVA of each SNP, testing each genotype class against the class of the other two genotypes combined. Results from the ANOVA dictated the parsimonious genetic model to be used for additional testing. Mixed Model Repeated Measures (MMRM) analysis was subsequently conducted using the parsimonious genetic model of each SNP in the MMRM model, as used for the analysis of the clinical trial results. In the MMRM analysis, only the best genetic model of each SNP, as determined in the ANOVA LOCF data analysis, was used.
Three analyses were performed. Analysis 1 was a two-phase approach in which DNA samples were separated into two groups. The first group consisted of 50% of the samples for a discovery phase in which only the top 30% and the bottom 30% of the change in PANSS-T (LOCF data) were used, and the second was a hold-out group consisting of the other 50% for a confirmatory phase. Only the 100 SNPs with the lowest P values in the discovery phase were subsequently tested.
Analysis 2 was an ANOVA of LOCF data for all iloperidone-treated patients in a single-phase approach.
Analysis 3 was an MMRM analysis of all patients using the most parsimonious genetic model of each SNP. […]

[2] = biological target: 5-HT, receptor (Homo sapiens, UniProt P34969); settings: cited from earlier work
Chain of 5-HT, receptor (P34969 whole entry): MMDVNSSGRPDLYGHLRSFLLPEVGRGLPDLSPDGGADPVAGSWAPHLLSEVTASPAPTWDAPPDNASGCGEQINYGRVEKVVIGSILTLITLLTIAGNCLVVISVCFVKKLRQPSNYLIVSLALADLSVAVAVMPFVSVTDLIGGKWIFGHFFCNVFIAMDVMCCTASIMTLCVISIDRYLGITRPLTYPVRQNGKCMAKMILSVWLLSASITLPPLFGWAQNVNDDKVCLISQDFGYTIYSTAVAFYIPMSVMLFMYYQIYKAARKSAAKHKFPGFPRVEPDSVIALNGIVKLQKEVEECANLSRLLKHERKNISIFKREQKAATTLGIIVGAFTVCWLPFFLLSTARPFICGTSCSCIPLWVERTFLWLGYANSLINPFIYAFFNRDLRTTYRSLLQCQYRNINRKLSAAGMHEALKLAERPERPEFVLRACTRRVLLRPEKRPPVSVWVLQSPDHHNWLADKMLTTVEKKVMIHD

With `COc1cc(C(C)=O)ccc1OCCCN1CCC(c2noc3cc(F)ccc23)CC1` [iloperidone, 1-[4-[3-[4-(6-flouro-1,2-benzisoxazol-3-yl)-1-piperidinyl]propoxy]-3-methoxyphenyl] ethanone] the “mean of change in PANSS-T” value ([1]; rs875326 (TNR) genotype non-AG (homozygotes, highest response class)) was −16.39 (±4.35), the “Odds Ratio of Improvement ≧ 20% in PANSS-T” value ([1]; rs875326 (TNR) non-AG vs AG) was 3.57 and the “Odds Ratio of Improvement ≧ 20% in PANSS-T” value ([1]; rs2513265 (GRIA4) non-TT vs TT) was 2.43. For the same compound, the “Odds Ratio of Improvement ≧ 20% in PANSS-T” value ([1]; rs4528226 (NUDT9P1) GT vs non-GT) was 3.00, the “mean of change in PANSS-T” value ([1]; rs4528226 (NUDT9P1) genotype GT (highest response class)) was −18.73 (±3.99) and the “Odds Ratio of Improvement ≧ 20% in PANSS-T” value ([1]; rs7837682 (GRFA2) AA vs non-AA) was 2.95. For the same compound, the “mean of change in PANSS-T” value ([1]; rs7837682 (GRFA2) genotype AA (highest response class)) was −15.95 (±4.23), the “Odds Ratio of Improvement ≧ 20% in PANSS-T” value ([1]; rs9643483 (XKR4) non-GG vs GG) was 3.42 and the “Odds Ratio of Improvement ≧ 20% in PANSS-T” value ([1]; rs11851892 (NPAS3) non-GG vs GG) was 2.74. The “improvement in PANSS-T greater than the mean response of all iloperidone-treated patients” value ([1]; rs11851892 non-GG genotype vs all iloperidone-treated patients) was 68% and the “affinity for the 5-HT, receptor” value [2] was “high affinity”.
